Results: patent US20220089575A1, “FARNESOID X RECEPTOR AGONISTS AND USES THEREOF” (Metacrine, Inc., priority 2017, published 2022)

Molecular target: T1, hFXR (Homo sapiens, UniProt Q96RI1)
T1 construct: expressed in transfected cells; host or cells: CV-1 cells
T1 sequence (Q96RI1 1-486): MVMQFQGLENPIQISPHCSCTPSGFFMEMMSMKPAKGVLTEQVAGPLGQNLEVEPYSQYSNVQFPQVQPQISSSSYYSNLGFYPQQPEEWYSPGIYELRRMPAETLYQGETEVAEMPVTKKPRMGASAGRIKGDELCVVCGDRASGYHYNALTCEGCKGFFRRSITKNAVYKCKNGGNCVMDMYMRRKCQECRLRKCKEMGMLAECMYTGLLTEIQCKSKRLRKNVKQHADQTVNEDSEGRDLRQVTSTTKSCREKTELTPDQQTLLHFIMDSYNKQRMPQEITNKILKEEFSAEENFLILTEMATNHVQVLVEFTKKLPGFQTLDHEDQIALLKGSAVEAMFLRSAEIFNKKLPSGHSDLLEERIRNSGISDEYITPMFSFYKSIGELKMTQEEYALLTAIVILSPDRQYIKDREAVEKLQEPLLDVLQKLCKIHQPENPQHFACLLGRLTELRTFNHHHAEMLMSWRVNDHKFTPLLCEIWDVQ
T1 sequence (P19793 1-462 partner): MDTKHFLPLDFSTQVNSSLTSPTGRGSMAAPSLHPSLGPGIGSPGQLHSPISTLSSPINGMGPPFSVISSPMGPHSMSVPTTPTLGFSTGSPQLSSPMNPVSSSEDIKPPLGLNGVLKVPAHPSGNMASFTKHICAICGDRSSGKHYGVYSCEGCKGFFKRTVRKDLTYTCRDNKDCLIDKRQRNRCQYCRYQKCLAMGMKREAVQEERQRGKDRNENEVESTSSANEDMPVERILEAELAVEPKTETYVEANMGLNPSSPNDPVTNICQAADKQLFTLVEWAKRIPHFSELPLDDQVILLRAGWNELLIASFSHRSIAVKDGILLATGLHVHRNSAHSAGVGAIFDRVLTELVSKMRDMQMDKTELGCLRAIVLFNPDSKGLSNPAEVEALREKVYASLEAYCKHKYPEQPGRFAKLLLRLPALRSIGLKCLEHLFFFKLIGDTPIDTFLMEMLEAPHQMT
Assay: In Vitro FXR Assay (TK): TK-ECRE-luc reporter in transfected CV-1 cells
Assay type: cell-based
Conditions: 18 hrs, luminescence, maximum efficacy of <25% of the Fexarmine control classified as '+'
Procedure: CV-1 cells were seeded at a density of 2,000,000 cells in a T175 flask with DMEM+10% charcoal double-stripped FBS and incubated at 37° C. in 5% CO2 for 18 h (O/N).
After 18 h of incubation, the medium in the T175 flask was changed with fresh DMEM+10% charcoal super-stripped serum. In a polypropylene tube, 2500 μL OptiMEM (Life Technologies, Cat #31985-062) was combined with expression plasmids for hFXR, hRXR, TK-ECRE-luc and pCMX-YFP. The tube was then briefly vortexed and incubated at room temperature for 5 minutes. Transfection reagent (X-tremeGENE HP from Roche, Cat #06 366 236 001) was added to the OptiMEM/plasmid mixture vortexed and incubated at room temperature for 20 minutes. Following incubation, the transfection reagent/DNA mixture complex was added to cells in the T175 flask and the cells were incubated at 37° C. in 5% CO2 for 18 h (O/N).
Compounds were serially diluted in DMSO and added to transfected CV-1 cells. The cells were then incubated for 18 hrs. The next day cells were lysed and examined for luminescence.

SMILES | EC50
CNC(=O)O[C@H]1CC[C@H](C(=O)N(C[C@H]2CC[C@H](c3ccc(OC)c(C)c3)CC2)c2cc(-c3cnn(C(C)C)c3)ccn2)CC1 [Compound 5.12, trans-4-((4-(1-Isopropyl-1H-pyrazol-4-yl)pyridin-2-yl)((trans-4-(4-methoxy-3-methylphenyl)cyclohexyl)methyl)carbamoyl)cyclohexyl methylcarbamate] | ≤ 250 nM
CCCOC(=O)[C@H]1CC[C@H](C(=O)N(C[C@H]2CC[C@H](c3ccc(OC)c(C)n3)CC2)c2cc(-c3cnn(C4CC4)c3)ccn2)CC1 [Compound 22.06, trans-Propyl 4-((4-(1-cyclopropyl-1H-pyrazol-4-yl)pyridin-2-yl)((trans-4-(5-methoxy-6-methylpyridin-2-yl)cyclohexyl)methyl)carbamoyl) cyclohexanecarboxylate] | 250 to 1000 nM
COc1ccc([C@H]2CC[C@H](CN(c3cccc(-c4cnc(C5CC5)s4)c3)C(=O)[C@H]3CC[C@H](NC(=O)C(C)O)CC3)CC2)cc1C (stereo partly drawn) [Compound 27.01, trans-N-(3-(2-Cyclopropylthiazol-5-yl)phenyl)-4-(2-hydroxypropanamido)-N-((trans-4-(4-methoxy-3-methylphenyl)cyclohexyl)methyl) cyclohexanecarboxamide] | ≤ 250 nM
COc1ccc([C@H]2CC[C@H](CN(c3cc(-c4coc(C5CC5)n4)ccn3)C(=O)[C@H]3CC[C@H](OC(=O)NCC(C)(O)C(C)C)CC3)CC2)nc1C (stereo partly drawn) [Compound 6.68, trans-4-((4-(2-Cyclopropyloxazol-4-yl)pyridin-2-yl)((trans-4-(5-methoxy-6-methylpyridin-2-yl)cyclohexyl)methyl)carbamoyl)cyclohexyl (2-hydroxy-2,3-dimethylbutyl)carbamate] | ≤ 250 nM
COc1ccc([C@H]2CC[C@H](CN(c3cccc(-c4cnn(C5CC5)c4)c3)C(=O)[C@H]3CC[C@H](NC(=O)[C@H]4CC[C@H](O)CC4)CC3)CC2)cc1C [Compound 26.06, trans-N-(3-(1-Cyclopropyl-1H-pyrazol-4-yl)phenyl)-4-(trans-4-hydroxycyclohexanecarboxamido)-N-((trans-4-(4-methoxy-3-methylphenyl)cyclohexyl)methyl) cyclohexanecarboxamide] | ≤ 250 nM
CCOC(=O)C[C@H]1CC[C@H](C(=O)N(C[C@H]2CC[C@H](c3ccc(OC)c(C#N)c3)CC2)c2cc(-c3cnn(C(C)C)c3)ccn2)CC1 [Compound 18.21, Ethyl 2-(trans-4-(((trans-4-(3-cyano-4-methoxyphenyl)cyclohexyl)methyl)(4-(1-isopropyl-1H-pyrazol-4-yl)pyridin-2-yl)carbamoyl)cyclohexyl)acetate] | ≤ 250 nM
COc1ccc([C@H]2CC[C@H](CN(c3cccc(-c4cnn(C5CC5)c4)c3)C(=O)[C@H]3CC[C@H](OC(=O)N4CCOCC4)CC3)CC2)cc1C [Compound 4.07, trans-4-((3-(1-Cyclopropyl-1H-pyrazol-4-yl)phenyl)((trans-4-(4-methoxy-3-methylphenyl)cyclohexyl)methyl)carbamoyl)cyclohexyl morpholine-4-carboxylate] | ≤ 250 nM
COc1ccc([C@H]2CC[C@H](CN(c3cccc(-c4cnn(C5CC5)c4)c3)C(=O)[C@H]3CC[C@H](C(=O)OC)CC3)CC2)nc1C [Compound 18.19, trans-Methyl 4-((3-(1-cyclopropyl-1H-pyrazol-4-yl)phenyl)((trans-4-(5-methoxy-6-methylpyridin-2-yl)cyclohexyl)methyl)carbamoyl) cyclohexanecarboxylate] | ≤ 250 nM
COc1ccc([C@H]2CC[C@H](CN(c3cccc(-c4cnc(C5CC5)s4)c3)C(=O)[C@H]3CC[C@H](NC(=O)CSC)CC3)CC2)cc1C [Compound 31.10, trans-N-(3-(2-Cyclopropylthiazol-5-yl)phenyl)-N-((trans-4-(4-methoxy-3-methylphenyl)cyclohexyl)methyl)-4-(2-(methylthio)acetamido) cyclohexanecarboxamide] | ≤ 250 nM
COc1ccc([C@H]2CC[C@H](CN(c3cccc(-c4cnn(C5CC5)c4)c3)C(=O)[C@H]3CC[C@H](CC(=O)O)CC3)CC2)nc1C [Compound 17.24, 2-(trans-4-((3-(1-Cyclopropyl-1H-pyrazol-4-yl)phenyl)((trans-4-(5-methoxy-6-methylpyridin-2-yl)cyclohexyl)methyl)carbamoyl)cyclohexyl)acetic acid] | ≤ 250 nM
COc1ccc([C@H]2CC[C@H](CN(c3cc(-c4coc(C5CC5)n4)ccn3)C(=O)[C@H]3CC[C@H](OC(=O)N(C)C)CC3)CC2)nc1C [Compound 7.78, trans-4-((4-(2-Cyclopropyloxazol-4-yl)pyridine-2-yl)((trans-4-(5-methoxy-6-methylpyridin-2-yl)cyclohexyl)methyl)carbamoyl)cyclohexyl dimethylcarbamate] | ≤ 250 nM
CCc1nc(-c2ccnc(N(C[C@H]3CC[C@H](c4ccc(OC)c(C)n4)CC3)C(=O)[C@H]3CC[C@H](OC(=O)N4CC(O)C4)CC3)c2)co1 [Compound 7.109, trans-4-((4-(2-Ethyloxazol-4-yl)pyridin-2-yl)((trans-4-(5-methoxy-6-methylpyridin-2-yl)cyclohexyl)methyl)carbamoyl)cyclohexyl 3-hydroxyazetidine-1-carboxylate] | ≤ 250 nM
CN(C)c1ccc([C@H]2CC[C@H](CN(c3cccc(-c4cnn(C5CC5)c4)c3)C(=O)[C@H]3CC[C@H](OC(=O)NCCO)CC3)CC2)cn1 [Compound 6.08, trans-4-((3-(1-Cyclopropyl-1H-pyrazol-4-yl)phenyl)((trans-4-(6-(dimethylamino)pyridin-3-yl)cyclohexyl)methyl)carbamoyl)cyclohexyl (2-hydroxyethyl)carbamate] | ≤ 250 nM
COc1ccc([C@H]2CC[C@H](CN(c3cc(-c4coc(C5CC5)n4)ccn3)C(=O)[C@H]3CC[C@H](OC(=O)NC[C@@H](C)O)CC3)CC2)nc1C [Compound 6.95, trans-4-((4-(2-Cyclopropyloxazol-4-yl)pyridin-2-yl)((trans-4-(5-methoxy-6-methylpyridin-2-yl)cyclohexyl)methyl)carbamoyl)cyclohexyl ((R)-2-hydroxypropyl)carbamate] | ≤ 250 nM
COc1ncc([C@H]2CC[C@H](CN(c3cc(-c4coc(C5CC5)n4)ccn3)C(=O)[C@H]3CC[C@H](OC(=O)N4CC(N(C)C)C4)CC3)CC2)cc1C [Compound 7.92, trans-4-((4-(2-Cyclopropyloxazol-4-yl)pyridine-2-yl)((trans-4-(6-methoxy-5-methylpyridin-3-yl)cyclohexyl)methyl)carbamoyl)cyclohexyl 3-(dimethylamino)azetidine-1-carboxylate] | ≤ 250 nM
CNC(=O)O[C@H]1CC[C@H](C(=O)N(C[C@H]2CC[C@H](c3ccc(N(C)C)nc3)CC2)c2cccc(-c3coc(C4CC4)n3)c2)CC1 [Compound 3.05, trans-4-((3-(2-Cyclopropyloxazol-4-yl)phenyl)((trans-4-(6-(dimethylamino)pyridine-3-yl)cyclohexyl)methyl)carbamoyl)cyclohexyl methylcarbamate] | ≤ 250 nM
COc1ccc([C@H]2CC[C@H](CN(c3cc(-c4coc(C5CC5)n4)ccn3)C(=O)[C@H]3CC[C@H](OC(=O)N4CC(N5CC(O)C5)C4)CC3)CC2)nc1C [Compound 7.108, trans-4-((4-(2-Cyclopropyloxazol-4-yl)pyridin-2-yl)((trans-4-(5-methoxy-6-methylpyridin-2-yl)cyclohexyl)methyl)carbamoyl)cyclohexyl 3-hydroxy-[1,3′-biazetidine]-1′-carboxylate] | ≤ 250 nM
CNC(=O)O[C@H]1CC[C@H](C(=O)N(C[C@H]2CC[C@H](c3ccc(OC)c(C)c3)CC2)c2cc(-c3cnn(C4CC4)c3)ccn2)CC1 [Compound 3.04, trans-4-((4-(1-Cyclopropyl-1H-pyrazol-4-yl)pyridin-2-yl)((trans-4-(4-methoxy-3-methylphenyl)cyclohexyl)methyl)carbamoyl)cyclohexyl methylcarbamate] | ≤ 250 nM
